ChEMBL document CHEMBL1129033, “Synthesis and antibacterial activity of U-100592 and U-100766, two oxazolidinone antibacterial agents for the potential treatment of multidrug-resistant gram-positive bacterial infections” (1996)
≈ marks a conversion by molar mass, not a printed value.

Assays:
Clostridium perfringens = experiment: In vitro antibacterial activity against Clostridium perfringens strain ATCC 13124; format: functional
Mus musculus [1] = experiment: In vivo antibacterial activity against Enterococcus faecium strain UC 15090 administered subcutaneously in mice; format: functional; details: sc
Bacteroides fragilis = experiment: In vitro antibacterial activity against Bacteroides fragilis strain ATCC 25285; format: functional
Escherichia coli = experiment: In vitro antibacterial activity against Escherichia coli strain ATCC 25922; format: functional
Mus musculus [2] = experiment: (§1) In vivo antibacterial activity against Staphylococcus aures strain UC 9213 administered subcutaneously in mice; format: functional; details: sc
Mus musculus [3] = experiment: as §1; format: functional; details: sc; remark: listed apart in the source
Pseudomonas aeruginosa = experiment: In vitro antibacterial activity against Pseudomonas aeruginosa strain ATCC 27853; format: functional
Streptococcus pneumoniae = experiment: In vitro antibacterial activity against Streptococcus pneumoniae strain UC 9912; format: functional
Klebsiella pneumoniae = experiment: In vitro antibacterial activity against Klebsiella pneumoniae strain UC 12081; format: functional
[4] = test system: Mycobacterium tuberculosis; experiment: In vitro antibacterial activity against Mycobacterium tuberculosis strain H37Rv; f means comparative control value for isoniazid was 0.20 ug/mL.; format: functional, organism-based
Mus musculus [5] = experiment: In vivo antibacterial activity against Enterococcus faecalis strain UC 12379 administered subcutaneously in mice; format: functional; details: sc
Enterococcus faecium = experiment: In vitro antibacterial activity against Enterococcus faecium strain UC12712; format: functional
[6] = test system: Staphylococcus epidermidis; experiment: In vitro antibacterial activity against Staphylococcus epidermis strain UC 30031; format: functional
[7] = test system: Mycobacterium tuberculosis; experiment: In vitro antibacterial activity against Mycobacterium tuberculosis strain H37Rv; format: functional
Mus musculus [8] = experiment: In vivo antibacterial activity against Staphylococcus aures strain UC 9213 administered perorally in mice; format: functional; details: po
Mus musculus [9] = experiment: In vivo antibacterial activity against Enterococcus faecalis strain UC 12379 administered perorally in mice; format: functional; details: po
Streptococcus pyogenes = experiment: In vitro antibacterial activity against Streptococcus pyogenes strain UC 152; format: functional
Mus musculus [10] = experiment: In vivo antibacterial activity against Enterococcus faecium strain UC 15090 administered perorally in mice; format: functional; details: po
Enterococcus faecalis = experiment: In vitro antibacterial activity against Enterococcus faecalis strain ATCC 29212; format: functional
Staphylococcus aureus [11] = experiment: In vitro antibacterial activity against Staphylococcus aures strain UC 9213; format: functional
Staphylococcus aureus [12] = experiment: In vitro antibacterial activity against Staphylococcus aures strain ATCC 29213; format: functional
Staphylococcus aureus [13] = experiment: In vitro antibacterial activity against Staphylococcus aures strain UC12673; format: functional

SMILES | MIC (Clostridium perfringens) | MIC (Bacteroides fragilis) | MIC (Escherichia coli) | ED50 (Mus musculus [2]) | MIC (Pseudomonas aeruginosa) | MIC (Streptococcus pneumoniae) | MIC (Klebsiella pneumoniae) | MIC (Enterococcus faecium) | MIC [6] | MIC [7] | ED50 (Mus musculus [8]) | ED50 (Mus musculus [9]) | MIC (Streptococcus pyogenes) | ED50 (Mus musculus [10]) | other results
CN[C@H](CC(C)C)C(=O)N[C@H]1C(=O)N[C@@H](CC(N)=O)C(=O)N[C@H]2C(=O)N[C@H]3C(=O)N[C@H](C(=O)N[C@H](C(=O)O)c4cc(O)cc(O)c4-c4cc3ccc4O)[C@H](O)c3ccc(c(Cl)c3)Oc3cc2cc(c3O[C@@H]2O[C@H](CO)[C@@H](O)[C@H](O)[C@H]2O[C@H]2C[C@](C)(N)[C@H](O)[C@H](C)O2)Oc2ccc(cc2Cl)[C@H]1O [VANCOMYCIN] | 1 mg/L (≈ 0.69 µM) | > 16 mg/L | > 64 mg/L | 3.9 mg/kg | > 64 mg/L | 0.5 mg/L (≈ 0.345 µM) | > 64 mg/L |  |  |  |  |  |  |  | ED50 (Mus musculus [1]): > 100 mg/kg; ED50 (Mus musculus [3]): 3.9 mg/kg; MIC [4]: Comparitive control valie for isonazid was 0.20 ug/ml; ED50 (Mus musculus [5]): < 0.6 mg/kg
CC(=O)NC[C@H]1CN(c2ccc(N3CCOCC3)c(F)c2)C(=O)O1 [LINEZOLID] | 1 mg/L (≈ 2.96 µM) | 1 mg/L (≈ 2.96 µM) | > 64 mg/L | 2 mg/kg | > 64 mg/L |  | > 64 mg/L | 2 mg/L (≈ 5.93 µM) | 1 mg/L (≈ 2.96 µM) | < 0.125 mg/L | 5.6 mg/kg | 10 mg/kg | 2 mg/L (≈ 5.93 µM) | 24 mg/kg | 
CC(=O)NC[C@H]1CN(c2ccc(N3CCN(C(=O)CO)CC3)c(F)c2)C(=O)O1 [EPEREZOLID] | 1 mg/L (≈ 2.54 µM) | 1 mg/L (≈ 2.54 µM) | > 64 mg/L | 0.9 mg/kg | > 64 mg/L | 0.5 mg/L (≈ 1.27 µM) | > 64 mg/L | 1 mg/L (≈ 2.54 µM) | 1 mg/L (≈ 2.54 µM) | < 0.125 mg/L | 1.9 mg/kg | 1.3 mg/kg | 1 mg/L (≈ 2.54 µM) | 12.5 mg/kg | MIC (Enterococcus faecalis): 2 mg/L (≈ 5.07 µM); MIC (Staphylococcus aureus [11]): 4 mg/L (≈ 10.1 µM); MIC (Staphylococcus aureus [12]): 4 mg/L (≈ 10.1 µM); MIC (Staphylococcus aureus [13]): 2 mg/L (≈ 5.07 µM)
